The test deals with T1, WIZ protein (HiBit-WIZ fusion protein) (Homo sapiens, UniProt O95785+Q96SW2).
T1 construct: expressed in transfected cells
Nature of the test: Quantification of WIZ protein levels in HiBit tag fusion protein assay (WIZ HiBit assay in 293T cells). It is filed as cell-based. Also on record: remaining activity / Dmax: dose or concentration left out as unconfirmed. The method, boiled down:
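Luminescence after LgBit complementation quantified remaining HiBit-WIZ in lysates of single-copy stable 293T lines. Cells dosed ~18 h at 37 °C with 10-point, 5-fold dilutions (highest 25 μM); DMSO set to 100%, fitted curve gave % remaining at 25 μM (Amax).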
On the technique in general: HiBiT is a short tag that completes a luciferase, so light tracks the accessible tagged protein.

Where [1] appears, read: HEK-293T, 100 − Amax, at 25 uM; 293T cells; read-out: % degradation of WIZ (100 − Amax).
Where [2] appears, read: HEK-293T, DMSO-normalized, curve-fitted percentage of WIZ-HiBit remaining at 25 uM; 293T cells; read-out: WIZ Amax.
The mark [3] stands for this setting: WIZ HiBit assay in 293T cells; 10-point, 5-fold dose response, highest concentration 25 μM, about 18 hours; read-out: WIZ AC50.

The source of these data is US11787785B2 (NOVARTIS AG, priority 2021, dated 2023).

SMILES strings stand for the structures. Like-named read-outs stand apart in the source and are kept apart here.

T1 sequence (O95785 whole entry, the tested form may be a part): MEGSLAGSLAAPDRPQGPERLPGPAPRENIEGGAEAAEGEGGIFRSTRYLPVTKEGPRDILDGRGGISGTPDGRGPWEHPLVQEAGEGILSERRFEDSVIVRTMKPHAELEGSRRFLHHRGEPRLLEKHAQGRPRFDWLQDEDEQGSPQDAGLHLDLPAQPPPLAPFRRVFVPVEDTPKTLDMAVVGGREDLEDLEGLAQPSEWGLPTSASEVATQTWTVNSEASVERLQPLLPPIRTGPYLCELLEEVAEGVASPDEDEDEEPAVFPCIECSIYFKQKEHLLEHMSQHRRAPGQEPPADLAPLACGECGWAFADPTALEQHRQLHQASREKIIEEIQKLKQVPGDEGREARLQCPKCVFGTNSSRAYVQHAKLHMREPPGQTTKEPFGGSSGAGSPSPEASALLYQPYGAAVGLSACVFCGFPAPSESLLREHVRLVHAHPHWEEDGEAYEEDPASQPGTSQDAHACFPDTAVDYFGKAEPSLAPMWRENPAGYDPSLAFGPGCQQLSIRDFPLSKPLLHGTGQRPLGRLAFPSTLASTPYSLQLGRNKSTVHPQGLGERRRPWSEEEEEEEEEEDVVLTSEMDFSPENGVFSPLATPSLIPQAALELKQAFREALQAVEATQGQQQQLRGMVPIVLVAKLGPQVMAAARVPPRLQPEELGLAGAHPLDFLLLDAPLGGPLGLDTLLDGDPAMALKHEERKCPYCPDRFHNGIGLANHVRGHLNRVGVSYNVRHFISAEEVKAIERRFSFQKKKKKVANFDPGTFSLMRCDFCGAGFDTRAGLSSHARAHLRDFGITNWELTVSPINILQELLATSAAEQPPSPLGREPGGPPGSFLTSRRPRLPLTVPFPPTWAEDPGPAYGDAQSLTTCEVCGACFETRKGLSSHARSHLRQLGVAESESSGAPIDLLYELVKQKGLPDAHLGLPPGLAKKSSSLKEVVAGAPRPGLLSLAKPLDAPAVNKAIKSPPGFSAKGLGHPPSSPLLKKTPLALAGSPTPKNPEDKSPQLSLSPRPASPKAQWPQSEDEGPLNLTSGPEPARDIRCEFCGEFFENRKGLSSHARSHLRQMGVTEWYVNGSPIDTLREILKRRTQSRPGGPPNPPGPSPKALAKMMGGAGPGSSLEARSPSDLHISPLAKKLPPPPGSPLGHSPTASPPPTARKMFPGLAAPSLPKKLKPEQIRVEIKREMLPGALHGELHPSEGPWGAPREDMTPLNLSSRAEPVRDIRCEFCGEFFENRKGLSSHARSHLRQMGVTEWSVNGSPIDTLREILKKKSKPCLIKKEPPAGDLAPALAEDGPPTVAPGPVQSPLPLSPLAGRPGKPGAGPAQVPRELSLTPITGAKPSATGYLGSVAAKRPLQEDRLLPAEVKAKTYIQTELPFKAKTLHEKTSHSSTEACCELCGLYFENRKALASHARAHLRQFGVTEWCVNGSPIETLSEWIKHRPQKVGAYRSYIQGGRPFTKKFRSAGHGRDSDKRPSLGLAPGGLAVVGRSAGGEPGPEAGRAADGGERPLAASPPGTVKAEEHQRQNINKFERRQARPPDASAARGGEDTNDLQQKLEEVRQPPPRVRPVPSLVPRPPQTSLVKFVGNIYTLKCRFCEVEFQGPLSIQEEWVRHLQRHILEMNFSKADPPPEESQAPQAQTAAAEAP
T1 sequence (Q96SW2 whole entry, the tested form may be a part): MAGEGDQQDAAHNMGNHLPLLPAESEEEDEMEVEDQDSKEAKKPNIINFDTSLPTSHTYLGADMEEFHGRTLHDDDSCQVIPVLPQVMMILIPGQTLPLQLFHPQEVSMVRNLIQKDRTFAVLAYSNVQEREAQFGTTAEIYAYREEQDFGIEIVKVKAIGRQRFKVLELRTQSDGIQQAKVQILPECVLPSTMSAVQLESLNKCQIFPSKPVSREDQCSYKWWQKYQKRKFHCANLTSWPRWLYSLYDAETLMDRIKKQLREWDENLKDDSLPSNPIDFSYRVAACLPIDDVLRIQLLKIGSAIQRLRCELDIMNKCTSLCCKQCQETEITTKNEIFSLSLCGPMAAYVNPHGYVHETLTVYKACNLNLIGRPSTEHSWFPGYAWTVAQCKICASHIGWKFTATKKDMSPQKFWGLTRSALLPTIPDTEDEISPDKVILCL
T1 sequence (Q16531 whole entry partner, the tested form may be a part): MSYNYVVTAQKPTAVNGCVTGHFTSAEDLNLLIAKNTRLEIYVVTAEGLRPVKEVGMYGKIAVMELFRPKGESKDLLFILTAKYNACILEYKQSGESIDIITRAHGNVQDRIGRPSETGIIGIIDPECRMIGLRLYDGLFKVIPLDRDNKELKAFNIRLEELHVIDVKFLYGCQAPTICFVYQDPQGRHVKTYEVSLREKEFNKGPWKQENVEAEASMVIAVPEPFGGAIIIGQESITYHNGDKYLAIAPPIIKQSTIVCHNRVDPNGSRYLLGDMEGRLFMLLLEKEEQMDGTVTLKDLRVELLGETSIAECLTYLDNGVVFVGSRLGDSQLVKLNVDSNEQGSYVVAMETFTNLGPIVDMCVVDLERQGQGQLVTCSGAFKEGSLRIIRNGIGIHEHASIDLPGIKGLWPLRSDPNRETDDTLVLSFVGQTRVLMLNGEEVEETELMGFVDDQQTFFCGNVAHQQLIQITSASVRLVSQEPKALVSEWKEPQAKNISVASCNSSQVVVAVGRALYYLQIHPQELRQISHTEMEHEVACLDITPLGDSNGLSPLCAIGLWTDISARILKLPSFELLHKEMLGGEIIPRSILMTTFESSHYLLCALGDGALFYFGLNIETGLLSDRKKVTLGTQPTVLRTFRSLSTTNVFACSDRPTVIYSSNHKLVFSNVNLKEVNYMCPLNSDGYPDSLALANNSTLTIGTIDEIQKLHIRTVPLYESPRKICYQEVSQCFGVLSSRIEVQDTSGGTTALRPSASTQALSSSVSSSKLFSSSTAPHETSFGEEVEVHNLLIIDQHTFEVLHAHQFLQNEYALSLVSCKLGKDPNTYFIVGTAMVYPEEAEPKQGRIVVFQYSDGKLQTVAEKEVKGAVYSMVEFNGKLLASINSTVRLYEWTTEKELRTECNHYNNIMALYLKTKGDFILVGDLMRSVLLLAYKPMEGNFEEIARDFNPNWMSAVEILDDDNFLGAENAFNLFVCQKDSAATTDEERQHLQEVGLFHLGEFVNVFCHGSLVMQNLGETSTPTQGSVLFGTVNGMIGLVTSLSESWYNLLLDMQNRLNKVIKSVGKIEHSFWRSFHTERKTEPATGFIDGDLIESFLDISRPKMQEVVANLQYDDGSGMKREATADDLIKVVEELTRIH

As for `C[C@H]1C[C@H](Cc2ccn3ncc(N4CCC(=O)NC4=O)c3c2)CCN1S(=O)(=O)N(C)C` [Example 292], the Dmax at 25 µM under setting [1] is 83%. The remaining activity at 25 µM under setting [2] was 17%. The DC50 under setting [3] was 11 nM.
For `C[C@H]1C[C@H](Cc2ccn3ncc(N4CCC(=O)NC4=O)c3c2)CCN1S(=O)(=O)NC1CCCC1` [Example 293], in that order: 76%, 24% and 65 nM.
For `C[C@H]1C[C@H](Cc2ccn3ncc(N4CCC(=O)NC4=O)c3c2)CCN1C(=O)N(C)C` [Example 294], in that order: 81%, 19% and 18 nM.
As for `C[C@H]1C[C@H](Cc2ccn3ncc(N4CCC(=O)NC4=O)c3c2)CCN1C(=O)N1CCCC1` [Example 295], the Dmax at 25 µM under setting [1] was 80%. Besides, the remaining activity at 25 µM under setting [2] turned out to be 20%. The DC50 under setting [3] is 24 nM.
On to `O=C1CCN(c2cnn3ccc(CC4CCN(S(=O)(=O)N5CCCC5)CC4)cc23)C(=O)N1` [Example 297, 1-(5-((1-(pyrrolidin-1-ylsulfonyl)piperidin-4-yl)methyl)pyrazolo[1,5-a]pyridin-3-yl)dihydropyrimidine-2,4(1H,3H)-dione], for which, under setting [1], the Dmax at 25 µM came out at 68%. For the same molecule, under setting [2], the remaining activity at 25 µM was 32%. The DC50 under setting [3] is 29 nM.
Regarding `O=C1CCN(c2cnn3ccc(CC4CCN(S(=O)(=O)NC5CCCC5)CC4)cc23)C(=O)N1` [Example 298, N-cyclopentyl-4-((3-(2,4-dioxotetrahydropyrimidin-1(2H)-yl)pyrazolo[1,5-a]pyridin-5-yl)methyl)piperidine-1-sulfonamide], under setting [1], the Dmax at 25 µM is 51%. For the same molecule, the remaining activity at 25 µM under setting [2] was 49%. Moreover, under setting [3], the DC50 stood at 242 nM.
Consider `CCN(C)C(=O)N1CC[C@@H](Cc2ccn3ncc(N4CCC(=O)NC4=O)c3c2)C[C@@H]1C` [Example 299, (2S,4R)-4-((3-(2,4-dioxotetrahydropyrimidin-1(2H)-yl)pyrazolo[1,5-a]pyridin-5-yl)methyl)-N-ethyl-N,2-dimethylpiperidine-1-carboxamide], for which the Dmax (HEK-293T, read-out: % degradation of WIZ (100 − Amax)) worked out at 82%. Besides, the remaining activity (HEK-293T, read-out: WIZ Amax) came to 18%. Besides, where the note is “read-out: WIZ AC50; WIZ HiBit assay in 293T cells; 10-point, 5-fold dose response, highest concentration 25 μM, about 18 hours”, the DC50 stood at 9 nM.
As to `CO[C@H]1C[C@@H](CN2CCC(Cc3ccn4ncc(N5CCC(=O)NC5=O)c4c3)CC2)C1` [Example 300, 1-(5-((1-(((1s,3s)-3-methoxycyclobutyl)methyl)piperidin-4-yl)methyl)pyrazolo[1,5-a]pyridin-3-yl)dihydropyrimidine-2,4(1H,3H)-dione], the Dmax at 25 µM under setting [1] was 82%. Besides, the remaining activity at 25 µM under setting [2] was found to be 18%. Besides, under setting [3], the DC50 was determined as 3 nM.
For `O=C1CCN(c2cnn3ccc(CC4CCN(C[C@H]5C[C@@H](F)[C@@H](F)C5)CC4)cc23)C(=O)N1` [Example 301, 1-(5-((1-(((1r,3R,4S)-3,4-difluorocyclopentyl)methyl)piperidin-4-yl)methyl)pyrazolo[1,5-a]pyridin-3-yl)dihydropyrimidine-2,4(1H,3H)-dione], in that order: 86%, 14% and 2 nM.
Turning to `CO[C@H]1C[C@H](CN2CC[C@@H](Cc3ccn4ncc(N5CCC(=O)NC5=O)c4c3)C[C@@H]2C)C1` [Example 302, 1-(5-(((2S,4R)-1-(((1r,3S)-3-methoxycyclobutyl)methyl)-2-methylpiperidin-4-yl)methyl)pyrazolo[1,5-a]pyridin-3-yl)dihydropyrimidine-2,4(1H,3H)-dione], the Dmax at 25 µM under setting [1] came out at 84%. Besides, the remaining activity at 25 µM under setting [2] is 16%. The DC50 under setting [3] was 42 nM.
As to `CO[C@H]1C[C@@H](CN2CC[C@@H](Cc3ccn4ncc(N5CCC(=O)NC5=O)c4c3)C[C@@H]2C)C1` [Example 303, 1-(5-(((2S,4R)-1-(((1s,3R)-3-methoxycyclobutyl)methyl)-2-methylpiperidin-4-yl)methyl)pyrazolo[1,5-a]pyridin-3-yl)dihydropyrimidine-2,4(1H,3H)-dione], the Dmax at 25 µM under setting [1] came out at 80%. Besides, under setting [2], the remaining activity at 25 µM is 20%. Further, the DC50 under setting [3] came out at 46 nM.
Consider `C[C@H]1C[C@H](Cc2ccn3ncc(N4CCC(=O)NC4=O)c3c2)CCN1C[C@H]1C[C@@H](F)[C@@H](F)C1` [Example 304, 1-(5-(((2S,4R)-1-(((1r,3R,4S)-3,4-difluorocyclopentyl)methyl)-2-methylpiperidin-4-yl)methyl)pyrazolo[1,5-a]pyridin-3-yl)dihydropyrimidine-2,4(1H,3H)-dione], for which the Dmax at 25 µM under setting [1] turned out to be 87%. The remaining activity at 25 µM under setting [2] was 13%. The DC50 under setting [3] was found to be 2 nM.
For the molecule `C[C@H]1C[C@H](Cc2ccn3ncc(N4CCC(=O)NC4=O)c3c2)CCN1C[C@H]1CC[C@H](C(F)(F)F)CC1` [Example 305, 1-(5-(((2S,4R)-2-methyl-1-(((1r,4S)-4-(trifluoromethyl)cyclohexyl)methyl)piperidin-4-yl)methyl)pyrazolo[1,5-a]pyridin-3-yl)dihydropyrimidine-2,4(1H,3H)-dione], the Dmax at 25 µM under setting [1] was 85%. Besides, under setting [2], the remaining activity at 25 µM amounted to 15%. Also, the DC50 under setting [3] was found to be 2 nM.
For `C[C@H]1C[C@H](Cc2ccn3ncc(N4CCC(=O)NC4=O)c3c2)CCN1C[C@@H]1CCC(F)(F)C1` [Example 306, 1-(5-(((2S,4R)-1-(((R)-3,3-difluorocyclopentyl)methyl)-2-methylpiperidin-4-yl)methyl)pyrazolo[1,5-a]pyridin-3-yl)dihydropyrimidine-2,4(1H,3H)-dione], in that order: 84%, 16% and 8 nM.
On to `C[C@H]1C[C@H](Cc2ccn3ncc(N4CCC(=O)NC4=O)c3c2)CCN1C[C@H]1CCC(F)(F)C1` [Example 307, 1-(5-(((2S,4R)-1-(((S)-3,3-difluorocyclopentyl)methyl)-2-methylpiperidin-4-yl)methyl)pyrazolo[1,5-a]pyridin-3-yl)dihydropyrimidine-2,4(1H,3H)-dione], for which, under setting [1], the Dmax at 25 µM was 84%. The remaining activity at 25 µM under setting [2] turned out to be 16%. Further, under setting [3], the DC50 was determined as 6 nM.
For `O=C1CCN(c2cnn3ccc(CN4CCN5CCCC[C@@H]5C4)cc23)C(=O)N1` [Example 313, (R)-1-(5-((octahydro-2H-pyrido[1,2-a]pyrazin-2-yl)methyl)pyrazolo[1,5-a]pyridin-3-yl)dihydropyrimidine-2,4(1H,3H)-dione], in that order: 70%, 30% and 85 nM.
For `O=C1CCN(c2cnn3ccc(CN4CCN5C(=O)COC[C@H]5C4)cc23)C(=O)N1` [Example 314, (R)-1-(5-((4-oxohexahydropyrazino[2,1-c][1,4]oxazin-8(1H)-yl)methyl)pyrazolo[1,5-a]pyridin-3-yl)dihydropyrimidine-2,4(1H,3H)-dione], in that order: 34%, 66% and 2560 nM.
`O=C1CCN(c2cnn3ccc(CN4CCN5[C@@H](CCS5(=O)=O)C4)cc23)C(=O)N1` [Example 315, (S)-1-(5-((1,1-dioxidohexahydro-5H-isothiazolo[2,3-a]pyrazin-5-yl)methyl)pyrazolo[1,5-a]pyridin-3-yl)dihydropyrimidine-2,4(1H,3H)-dione]: under setting [1], the Dmax at 25 µM is 53%. Further, the remaining activity at 25 µM under setting [2] turned out to be 47%. The DC50 under setting [3] worked out at 1020 nM.
`CO[C@H]1C[C@H](CN2CCN(Cc3ccn4ncc(N5CCC(=O)NC5=O)c4c3)C[C@@H]2C)C1` [Example 316, 1-(5-(((S)-4-(((1r,3S)-3-methoxycyclobutyl)methyl)-3-methylpiperazin-1-yl)methyl)pyrazolo[1,5-a]pyridin-3-yl)dihydropyrimidine-2,4(1H,3H)-dione]: the Dmax at 25 µM under setting [1] was found to be 83%. Also, the remaining activity at 25 µM under setting [2] turned out to be 17%. Under setting [3], the DC50 was 61 nM.
Consider `CO[C@H]1C[C@@H](CN2CCN(Cc3ccn4ncc(N5CCC(=O)NC5=O)c4c3)C[C@@H]2C)C1` [Example 317, 1-(5-(((S)-4-(((1s,3R)-3-methoxycyclobutyl)methyl)-3-methylpiperazin-1-yl)methyl)pyrazolo[1,5-a]pyridin-3-yl)dihydropyrimidine-2,4(1H,3H)-dione], for which the Dmax at 25 µM under setting [1] came to 80%. Besides, under setting [2], the remaining activity at 25 µM stood at 20%. Moreover, the DC50 under setting [3] was found to be 31 nM.
For `C[C@H]1CN(Cc2ccn3ncc(N4CCC(=O)NC4=O)c3c2)CCN1C[C@H]1C[C@@H](F)[C@@H](F)C1` [Example 318, 1-(5-(((S)-4-(((1r,3R,4S)-3,4-difluorocyclopentyl)methyl)-3-methylpiperazin-1-yl)methyl)pyrazolo[1,5-a]pyridin-3-yl)dihydropyrimidine-2,4(1H,3H)-dione], in that order: 87%, 13% and 10 nM.
For `C[C@H]1CN(Cc2ccn3ncc(N4CCC(=O)NC4=O)c3c2)CCN1C[C@@H]1CCC(F)(F)C1` [Example 319, 1-(5-(((S)-4-(((R)-3,3-difluorocyclopentyl)methyl)-3-methylpiperazin-1-yl)methyl)pyrazolo[1,5-a]pyridin-3-yl)dihydropyrimidine-2,4(1H,3H)-dione], in that order: 78%, 21% and 4 nM.
